Data on 2 compounds can be found in patent US11214779B2, “Activatable CRISPR/CAS9 for spatial and temporal control of genome editing” (University of Pittsburgh—Of the Commonwealth System of …, priority 2015, dated 2022).

The experiment relates to pIRG dual reporter in HEK 293T cells. The experiment can be described thus: Small molecule activation of Cas9-OABK in live cells (DsRed/EGFP dual reporter assay). The format is cell-based, human. The settings on record: for Concentration dependence of EGFP expression (activation of gene editing): varying concentrations (0-500 μM) of phosphine, Cas9-OABK. As to the method:
HEK 293T cells were seeded into a 96-well cell culture microplate (Greiner), and incubated overnight in DMEM growth media supplemented with 10% FBS and 1% penicillin/streptomycin at 37° C. in 5% CO2 humidified atmosphere. Before transfection, media was replaced with antibiotics-free DMEM supplemented with or without OABK (0.25 mM). Quadruple transfections were carried out with linear PEI using pMbOABKRS-wtCas9 or pMbOABKRS-Cas9-K866TAG, p4CMVE-U6-PylT (Gautier et al., J Am Chem Soc 132, 4086-4088, 2010), gRNA plasmids (Hemphill et al., J Am Chem Soc 137, 5642-5645, 2015), and pRG dual reporter plasmid ((Hemphill et al., J Am Chem Soc 137, 5642-5645, 2015)) (100 ng of each). After a 24 h incubation, cells were washed with fresh DMEM and incubated for 2 h. For regulating gene editing in live cells, HEK 293T cells were treated with 5 (0.5 mM) or without 5. After overnight incubation, media was replaced with DMEM without phenol red, and cells were imaged on a Zeiss Observer Z1 microscope (10× objective, NA 0.8 plan-apochromat) with EGFP BP470/40; Em: BP525/50) and DsRed BP550/25; Em: BP605/70) filter cubes. Fluorescent cell counting was performed on a Nikon A1 confocal microscope (10× objective) and analyzed using Elements software.
The function of Cas9-OABK in the absence and presence of phosphine derivatives 5 and 6 (see FIG. 14) was investigated using a DsRed/EGFP dual reporter assay (FIG. 15A). […] Once Cas9-OABK is activated by the small molecule phosphine, the complex of functional Cas9 and gRNAs induces excision of the DsRed-terminator cassette, followed by NHEJ repair, and leading to EGFP expression.

With `O=C(O)c1ccccc1P(c1ccccc1)c1ccccc1` [compound 5, 2-(diphenylphosphino)benzoic acid], the “Concentration dependence of EGFP expression (activation of gene editing)” value was “dose-dependent”.

As for `NC(=O)c1ccccc1P(c1ccccc1)c1ccccc1` [compound 6, 2-(diphenylphosphino)benzamide], the “Concentration dependence of EGFP expression (activation of gene editing)” value is recorded as “dose-dependent”. In addition, where the note is “live HEK 293T cells, concentrations 0-500 μM tested”, the “Effective concentration of phosphine for activation of Cas9-OABK” value is 25 µM.
